Reference: US20160280699A1, “SUBSTITUTED PHENYLALANINE DERIVATIVES” (BAYER PHARMA AKTIENGESELLSCHAFT, priority 2013, published 2016)
Counter-ions that a name gives are not always drawn.

Legend:
human and animal plasma = test: Determination of anticoagulatory activity: activated partial thromboplastin time (aPTT) in plasma; format: biochemical; details: concentration of test substance which brings about a 1.5-fold extension of the aPTT, 37° C., C.K. Prest kit
How it was run: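 Citrated human or animal plasma (e.g. mouse, rat, rabbit, pig, dog) preincubated 3 min at 37 °C with test substance and cephalin/kaolin PTT reagent. Value is the concentration giving a 1.5-fold aPTT extension.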

human factor XIa = biological target: T1, human factor XIa (Homo sapiens, UniProt P03951); test: Measurement of FXIa inhibition (fluorogenic peptide substrate Boc-Glu(OBzl)-Ala-Arg-AMC); format: biochemical; details: factor XIa from Kordia, 15 min preincubation, 30 min at 22° C., fluorescence
T1 construct: purchased Kordia
T1 sequence (P03951 388-625 limits assumed): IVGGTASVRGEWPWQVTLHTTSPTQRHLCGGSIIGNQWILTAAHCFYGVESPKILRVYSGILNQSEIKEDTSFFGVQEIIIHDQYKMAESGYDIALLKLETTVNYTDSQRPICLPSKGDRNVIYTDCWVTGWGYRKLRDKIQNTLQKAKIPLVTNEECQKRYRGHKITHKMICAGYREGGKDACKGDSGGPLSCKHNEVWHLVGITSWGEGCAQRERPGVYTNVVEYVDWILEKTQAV
T1 sequence (P03951 19-387 partner limits assumed): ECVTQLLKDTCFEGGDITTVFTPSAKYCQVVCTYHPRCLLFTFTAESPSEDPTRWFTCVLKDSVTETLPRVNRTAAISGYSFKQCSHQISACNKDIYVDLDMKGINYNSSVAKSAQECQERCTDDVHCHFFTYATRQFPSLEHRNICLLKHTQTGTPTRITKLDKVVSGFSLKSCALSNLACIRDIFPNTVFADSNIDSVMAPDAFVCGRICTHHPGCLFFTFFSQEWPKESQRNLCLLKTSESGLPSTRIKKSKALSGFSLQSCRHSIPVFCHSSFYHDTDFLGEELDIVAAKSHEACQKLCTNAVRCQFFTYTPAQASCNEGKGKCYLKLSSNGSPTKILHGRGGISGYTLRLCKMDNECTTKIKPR

| Structure (SMILES) | IC50 (human factor XIa) [nM] | aPTT (human and animal plasma) [µmol/L] |
| --- | --- | --- |
| NC[C@H]1CC[C@H](C(=O)N[C@@H](Cc2ccc(-c3cccnc3O)cc2)C(=O)Nc2ccc(-c3nn[nH]n3)cc2)CC1 [Example 37, N-alpha-{[trans-4-(Aminomethyl)cyclohexyl]carbonyl}-4-(2-hydroxypyridin-3-yl)-N-[4-(2H-tetrazol-5-yl)phenyl]-L-phenylalaninamide hydrochloride] | 5.3 | 0.26 |
| CN1CCN(c2cc(-c3ccc(C[C@H](NC(=O)C4CCC(CN)CC4)C(=O)Nc4ccc(-c5nnn[nH]5)cc4)cc3)ccn2)CC1 (stereo partly drawn) [Example 53, N-alpha-{[trans-4-(Aminomethyl)cyclohexyl]carbonyl}-4-[2-(4-methylpiperazin-1-yl)pyridin-4-yl]-N-[4-(1H-tetrazol-5-yl)phenyl]-L-phenylalaninamide hydrochloride] | 11 | 0.21 |
| Cc1cc(N2CCNCC2)ncc1-c1ccc(C[C@H](NC(=O)[C@H]2CC[C@H](CN)CC2)C(=O)Nc2ccc(-c3nn[nH]n3)cc2)cc1 [Example 41, N-alpha-{[trans-4-(Aminomethyl)cyclohexyl]carbonyl}-4-[4-methyl-6-(piperazin-1-yl)pyridin-3-yl]-N-[4-(2H-tetrazol-5-yl)phenyl]-L-phenylalaninamide hydrochloride] | 3.2 | 0.06 |
| CN(C)c1ccc(-c2ccc(C[C@H](NC(=O)[C@H]3CC[C@H](CN)CC3)C(=O)Nc3ccc(-c4nnn[nH]4)cc3)cc2)cn1 [Example 4, N-alpha-{[trans-4-(Aminomethyl)cyclohexyl]carbonyl}-4-[6-(dimethylamino)pyridin-3-yl]-N-[4-(1H-tetrazol-5-yl)phenyl]-L-phenylalaninamide hydrochloride] | 3.8 | 0.23 |
| CN(C)CCCOc1ccc(-c2ccc(C[C@H](NC(=O)C3CCC(CN)CC3)C(=O)Nc3ccc(-c4nnc(Cl)[nH]4)cc3)cc2)cn1 (stereo partly drawn) [Example 56, N-alpha-{[trans-4-(Aminomethyl)cyclohexyl]carbonyl}-N-[4-(3-chloro-4H-1,2,4-triazol-5-yl)phenyl]-4-{6-[3-(dimethylamino)propoxy]pyridin-3-yl}-L-phenylalaninamide hydrochloride] | 9.6 | 0.25 |
| NC[C@H]1CC[C@H](C(=O)N[C@@H](Cc2ccc(-c3cccnc3N)cc2)C(=O)Nc2ccc(-c3nn[nH]n3)cc2)CC1 [Example 26, N-alpha-{[trans-4-(Aminomethyl)cyclohexyl]carbonyl}-4-(2-aminopyridin-3-yl)-N-[4-(2H-tetrazol-5-yl)phenyl]-L-phenylalaninamide hydrochloride] | 3.7 | 0.19 |
| CN(C)CCCOc1ccc(-c2ccc(C[C@H](NC(=O)[C@H]3CC[C@H](CN)CC3)C(=O)Nc3ccc(-c4noc(=O)[nH]4)cc3)cc2)cn1 [Example 19, N-alpha-{[trans-4-(Aminomethyl)cyclohexyl]carbonyl}-4-{6-[3-(dimethylamino)propoxy]pyridin-3-yl}-N-[4-(5-oxo-4,5-dihydro-1,2,4-oxadiazol-3-yl)phenyl]-L-phenylalaninamide hydrochloride] | 16 | 0.17 |
| CN1CCN(S(=O)(=O)c2cncc(-c3ccc(C[C@H](NC(=O)[C@H]4CC[C@H](CN)CC4)C(=O)Nc4ccc(-c5nnn[nH]5)cc4)cc3)c2)CC1 [Example 2, N-alpha-{[trans-4-(Aminomethyl)cyclohexyl]carbonyl}-4-{5-[(4-methylpiperazin-1-yl)sulphonyl]pyridin-3-yl}-N-[4-(1H-tetrazol-5-yl)phenyl]-L-phenylalaninamide hydrochloride] | 5.3 | 0.28 |

Now those with a lower IC50 (human factor XIa), led by results:

| IC50 (human factor XIa) [nM] | Structure (SMILES) | aPTT (human and animal plasma) [µmol/L] |
| --- | --- | --- |
| 1.3 | Cc1cc(N2CCOCC2)ncc1-c1ccc(C[C@H](NC(=O)[C@H]2CC[C@H](CN)CC2)C(=O)Nc2ccc(-c3nn[nH]n3)cc2)cc1 [Example 29, N-alpha-{[trans-4-(Aminomethyl)cyclohexyl]carbonyl}-4-[4-methyl-6-(morpholin-4-yl)pyridin-3-yl]-N-[4-(2H-tetrazol-5-yl)phenyl]-L-phenylalaninamide hydrochloride] | 0.21 |
| 2.6 | NC[C@H]1CC[C@H](C(=O)N[C@@H](Cc2ccc(-c3cnc(N4CCCCC4)nc3O)cc2)C(=O)Nc2ccc(-c3nn[nH]n3)cc2)CC1 [Example 40, N-alpha-{[trans-4-(Aminomethyl)cyclohexyl]carbonyl}-4-[4-hydroxy-2-(piperidin-1-yl)pyrimidin-5-yl]-N-[4-(2H-tetrazol-5-yl)phenyl]-L-phenylalaninamide hydrochloride] | 0.08 |
| 1.3 | NC[C@H]1CC[C@H](C(=O)N[C@@H](Cc2ccc(-c3cccnc3C(F)(F)F)cc2)C(=O)Nc2ccc(-c3nnn[nH]3)cc2)CC1 [Example 50, N-alpha-{[trans-4-(Aminomethyl)cyclohexyl]carbonyl}-N-[4-(1H-tetrazol-5-yl)phenyl]-4-[2-(trifluoromethyl)pyridin-3-yl]-L-phenylalaninamide hydrochloride] | 0.16 |
| 2.1 | Cc1ncccc1-c1ccc(C[C@H](NC(=O)[C@H]2CC[C@H](CN)CC2)C(=O)Nc2ccc(-c3nn[nH]n3)cc2)cc1 [Example 13, N-alpha-{[trans-4-(Aminomethyl)cyclohexyl]carbonyl}-4-(2-methylpyridin-3-yl)-N-[4-(2H-tetrazol-5-yl)phenyl]-L-phenylalaninamide hydrochloride] | 0.13 |
| 2.3 | NC[C@H]1CC[C@H](C(=O)N[C@@H](Cc2ccc(-c3cccnc3Cl)cc2)C(=O)Nc2ccc(-c3nnn[nH]3)cc2)CC1 [Example 3, N-alpha-{[trans-4-(Aminomethyl)cyclohexyl]carbonyl}-4-(2-chloropyridin-3-yl)-N-[4-(1H-tetrazol-5-yl)phenyl]-L-phenylalaninamide hydrochloride] | 0.24 |
| 1.8 | NC[C@H]1CC[C@H](C(=O)N[C@@H](Cc2ccc(-c3ccnc(N4CCOCC4)c3Cl)cc2)C(=O)Nc2ccc(-c3nn[nH]n3)cc2)CC1 [Example 43, N-alpha-{[trans-4-(Aminomethyl)cyclohexyl]carbonyl}-4-[3-chloro-2-(morpholin-4-yl)pyridin-4-yl]-N-[4-(2H-tetrazol-5-yl)phenyl]-L-phenylalaninamide hydrochloride] | 0.37 |
| 1.1 | Cc1cc(N2CCNCC2)ncc1-c1ccc(C[C@H](NC(=O)[C@H]2CC[C@H](CN)CC2)C(=O)Nc2ccc(-c3nn[nH]n3)c(F)c2)cc1 [Example 47, N-alpha-{[trans-4-(Aminomethyl)cyclohexyl]carbonyl}-N-[3-fluoro-4-(2H-tetrazol-5-yl)phenyl]-4-[4-methyl-6-(piperazin-1-yl)pyridin-3-yl]-L-phenylalaninamide hydrochloride] | 0.08 |
